According to the supplement of paper PMC10331698:
± gives the standard deviation of the averaged measurements.

How the values were obtained:
Assay in all cases: level (log10 ratio to DMSO vehicle control); higher = higher biomarker level / cell amount than vehicle control
[1] = compound: O=S(=O)(Cl)C(F)(F)C(F)(F)C(F)(F)C(F)(F)C(F)(F)C(F)(F)C(F)(F)C(F)(F)F [Perfluoro-1-octanesulfonyl chloride]; conditions: in DMSO
Protocol: (§1)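 BioMAP Diversity Plus panel of 12 human primary cell co-culture systems (3C, 4H, LPS, SAg, BT, BF4T, BE3C, CASM3C, HDF3CGF, KF3CT, MyoF, Mphg). Compounds were added 1 h before stimulation and left for 24 h (MyoF 48 h; BT 72 h for soluble read-outs or 6 d for IgG). Biomarkers were read by ELISA, cytotoxicity by SRB, PBMC viability and proliferation by Alamar Blue. Each well value was divided by the mean of 8 DMSO control wells on the same plate and log10 transformed; duplicate blinded samples were tested at 4 concentrations.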

Nonafluoropentanamide = compound: NC(=O)C(F)(F)C(F)(F)C(F)(F)C(F)(F)F [Nonafluoropentanamide]; conditions: in DMSO
Protocol: as §1

[2] = compound: C=C(C)C(=O)OCCC(F)(F)C(F)(F)C(F)(F)C(F)(F)C(F)(F)C(F)(F)F [6:2 Fluorotelomer methacrylate]; conditions: in DMSO
Protocol: as §1

Hexafluoroamylene glycol = compound: OCC(F)(F)C(F)(F)C(F)(F)CO [Hexafluoroamylene glycol]; conditions: in DMSO
Protocol: as §1

[3] = compound: FC(F)(F)C(F)(F)C(F)(F)C(F)(F)C(F)(F)C(F)(F)C(F)(F)I [1-Iodopentadecafluoroheptane]; conditions: in DMSO
Protocol: as §1

[4] = compound: FC(F)(F)C(F)(F)C(F)(F)CC1CO1 [1H,1H-Heptafluorobutyl epoxide]; conditions: in DMSO
Protocol: as §1

Octafluoroadipamide = compound: NC(=O)C(F)(F)C(F)(F)C(F)(F)C(F)(F)C(N)=O [Octafluoroadipamide]; conditions: in DMSO
Protocol: as §1

[5] = compound: COC(=O)C(F)(F)C(F)(F)OC(F)(C(F)(F)F)C(F)(F)OC(F)=C(F)F [Methyl perfluoro(3-(1-ethenyloxypropan-2-yloxy)propanoate)]; conditions: in DMSO
Protocol: as §1

Heptafluorobutyl iodide = compound: FC(F)(F)C(F)(F)C(F)(F)CI [Heptafluorobutyl iodide]; conditions: in DMSO
Protocol: as §1

[6] = compound: O=S(=O)(F)C(F)(F)C(F)(F)C(F)(F)C(F)(F)C(F)(F)C(F)(F)C(F)(F)C(F)(F)F [Perfluorooctanesulfonyl fluoride]; conditions: in DMSO
Protocol: as §1

[7] = compound: O=S(=O)(O)CCC(F)(F)C(F)(F)C(F)(F)C(F)(F)C(F)(F)C(F)(F)F [6:2 Fluorotelomer sulfonic acid]; conditions: in DMSO
Protocol: as §1

[8] = compound: O=C(O)C=CC(F)(C(F)(F)F)C(F)(F)F [3-(Perfluoroisopropyl)-2-propenoic acid]; conditions: in DMSO
Protocol: as §1

[9] = compound: NC(=O)C(F)(F)C(F)(F)C(F)(F)C(F)F; conditions: in DMSO
Protocol: as §1

[10] = compound: O=S(=O)(O)C(F)(F)C(F)(F)C(F)(F)C(F)(F)C(F)(F)C(F)(F)C(F)(F)C(F)(F)C(F)(F)C(F)(F)F [Sodium perfluorodecanesulfonate]; conditions: in DMSO
Protocol: as §1

[11] = compound: FC(F)(F)C(F)(F)CNCC(F)(F)C(F)(F)F [Bis(1H,1H-perfluoropropyl)amine]; conditions: in DMSO
Protocol: as §1

[12] = compound: FC(F)(F)C(F)(F)C(F)(F)C(F)(F)C(F)(F)C(F)(F)CC1CO1 [3-(Perfluorohexyl)-1,2-epoxypropane]; conditions: in DMSO
Protocol: as §1

[13] = compound: NS(=O)(=O)C(F)(F)C(F)(F)C(F)(F)C(F)(F)C(F)(F)C(F)(F)F [Perfluorohexanesulfonamide]; conditions: in DMSO
Protocol: as §1

[14] = compound: O=C(O)C(F)(F)C(F)(F)C(F)(F)C(F)(F)C(F)(F)C(F)(F)C(F)(F)C(F)(F)C(F)(F)C(F)F [11-H-Perfluoroundecanoic acid]; conditions: in DMSO
Protocol: as §1

[15] = compound: C=CC(=O)OCC(F)(F)C(F)(F)C(F)(F)COC(=O)C=C [1H,1H,5H,5H-Perfluoro-1,5-pentanediol diacrylate]; conditions: 6700 nM; in DMSO
Protocol: as §1

## BF4T:CCL26/Eotaxin-3
[1]; 6700 nM
  level (log10): -0.0515 ± 0.0064
[1]; 20000 nM
  level (log10): -0.142 ± 0.011
[1]; 60000 nM
  level (log10): -0.326 ± 0.051
Nonafluoropentanamide; 6700 nM
  level (log10): -0.006 ± 0.0071
Nonafluoropentanamide; 20000 nM
  level (log10): -0.055 ± 0.0042
Nonafluoropentanamide; 60000 nM
  level (log10): -0.0525 ± 0.0092
[2]; 6700 nM
  level (log10): 0.0285 ± 0.025
[2]; 20000 nM
  level (log10): -0.001 ± 0.11
[2]; 60000 nM
  level (log10): 0.041 ± 0.055
Hexafluoroamylene glycol; 6700 nM
  level (log10): 0.003 ± 0.051
Hexafluoroamylene glycol; 20000 nM
  level (log10): 0.002 ± 0.0071
Hexafluoroamylene glycol; 60000 nM
  level (log10): 0.0395 ± 0.042
[3]; 6700 nM
  level (log10): -0.04 ± 0.048
[3]; 20000 nM
  level (log10): -0.0305 ± 0.042
[4]; 6700 nM
  level (log10): -0.001 ± 0.013
[4]; 20000 nM
  level (log10): 0.0095 ± 0.0035
[4]; 60000 nM
  level (log10): 0.01 ± 0.011
Octafluoroadipamide; 6700 nM
  level (log10): -0.0045 ± 0.046
Octafluoroadipamide; 20000 nM
  level (log10): 0.0065 ± 0.052
Octafluoroadipamide; 60000 nM
  level (log10): 0.0075 ± 0.029
[5]; 6700 nM
  level (log10): -0.007
[5]; 20000 nM
  level (log10): -0.069 ± 0.014
Heptafluorobutyl iodide; 6700 nM
  level (log10): -0.0245 ± 0.005
Heptafluorobutyl iodide; 20000 nM
  level (log10): 0.002 ± 0.023
Heptafluorobutyl iodide; 60000 nM
  level (log10): 0.048 ± 0.023
[6]; 6700 nM
  level (log10): -0.0265 ± 0.021
[6]; 20000 nM
  level (log10): 0.0035 ± 0.016
[6]; 60000 nM
  level (log10): -0.014 ± 0.016
[7]; 6700 nM
  level (log10): 0.001 ± 0.018
[7]; 20000 nM
  level (log10): -0.0535 ± 0.011
[7]; 60000 nM
  level (log10): -0.08 ± 0.078
[8]; 6700 nM
  level (log10): -0.0085 ± 0.057
[8]; 20000 nM
  level (log10): -0.005 ± 0.013
[8]; 60000 nM
  level (log10): 0.0165 ± 0.029
[9]; 6700 nM
  level (log10): -0.001 ± 0.0085
[9]; 20000 nM
  level (log10): -0.012 ± 0.033
[9]; 60000 nM
  level (log10): 0.0005 ± 0.018
[10]; 1500 nM
  level (log10): -0.0815 ± 0.026
[10]; 4400 nM
  level (log10): -0.131 ± 0.0078
[10]; 13000 nM
  level (log10): -0.23 ± 0.066
[10]; 40000 nM
  level (log10): -0.298 ± 0.013
[11]; 6700 nM
  level (log10): -0.0275 ± 0.026
[11]; 20000 nM
  level (log10): -0.0245 ± 0.0021
[11]; 60000 nM
  level (log10): -0.0055 ± 0.053
[12]; 6700 nM
  level (log10): -0.0225 ± 0.076
[12]; 20000 nM
  level (log10): -0.016 ± 0.065
[12]; 60000 nM
  level (log10): 0.001 ± 0.0042
[13]; 6700 nM
  level (log10): -0.017 ± 0.018
[13]; 20000 nM
  level (log10): -0.064 ± 0.0028
[13]; 60000 nM
  level (log10): -0.151 ± 0.012
[14]; 6700 nM
  level (log10): -0.122 ± 0.014
[14]; 20000 nM
  level (log10): -0.234 ± 0.018
[15]
  level (log10): -0.04 ± 0.0028

## BF4T:CD54/ICAM-1
[1]; 6700 nM
  level (log10): -0.011 ± 0.0085
[1]; 20000 nM
  level (log10): -0.023
[1]; 60000 nM
  level (log10): -0.084
Nonafluoropentanamide; 6700 nM
  level (log10): -0.003 ± 0.0028
Nonafluoropentanamide; 20000 nM
  level (log10): -0.0005 ± 0.00071
Nonafluoropentanamide; 60000 nM
  level (log10): 0.007 ± 0.0099
[2]; 6700 nM
  level (log10): -0.019 ± 0.0042
[2]; 20000 nM
  level (log10): -0.0045 ± 0.026
[2]; 60000 nM
  level (log10): -0.0195 ± 0.0035
Hexafluoroamylene glycol; 6700 nM
  level (log10): -0.0145 ± 0.005
Hexafluoroamylene glycol; 20000 nM
  level (log10): -0.0045 ± 0.015
Hexafluoroamylene glycol; 60000 nM
  level (log10): 0.009 ± 0.014
[3]; 6700 nM
  level (log10): 0.004 ± 0.011
[3]; 20000 nM
  level (log10): -0.0025 ± 0.013
[4]; 6700 nM
  level (log10): -0.027 ± 0.016
[4]; 20000 nM
  level (log10): -0.003 ± 0.035
[4]; 60000 nM
  level (log10): -0.0245 ± 0.018
Octafluoroadipamide; 6700 nM
  level (log10): -0.015 ± 0.023
Octafluoroadipamide; 20000 nM
  level (log10): -0.017 ± 0.021
Octafluoroadipamide; 60000 nM
  level (log10): 0.009 ± 0.016
[5]; 6700 nM
  level (log10): -0.0215 ± 0.011
[5]; 20000 nM
  level (log10): -0.0265 ± 0.0064
Heptafluorobutyl iodide; 6700 nM
  level (log10): -0.012 ± 0.011
Heptafluorobutyl iodide; 20000 nM
  level (log10): -0.008 ± 0.016
Heptafluorobutyl iodide; 60000 nM
  level (log10): -0.003 ± 0.031
[6]; 6700 nM
  level (log10): -0.002 ± 0.0014
[6]; 20000 nM
  level (log10): -0.006
[6]; 60000 nM
  level (log10): -0.0045 ± 0.0021
[7]; 6700 nM
  level (log10): -0.0115 ± 0.00071
[7]; 20000 nM
  level (log10): -0.015 ± 0.021
[7]; 60000 nM
  level (log10): -0.0095 ± 0.018
[8]; 6700 nM
  level (log10): 0.007 ± 0.0042
[8]; 20000 nM
  level (log10): -0.0005 ± 0.025
[8]; 60000 nM
  level (log10): 0.011 ± 0.0028
[9]; 6700 nM
  level (log10): -0.0105 ± 0.015
[9]; 20000 nM
  level (log10): -0.0095 ± 0.022
[9]; 60000 nM
  level (log10): -0.0045 ± 0.0021
[10]; 1500 nM
  level (log10): -0.019 ± 0.0071
[10]; 4400 nM
  level (log10): -0.031 ± 0.016
[10]; 13000 nM
  level (log10): -0.014 ± 0.014
[10]; 40000 nM
  level (log10): -0.0105 ± 0.025
[11]; 6700 nM
  level (log10): -0.0035 ± 0.0021
[11]; 20000 nM
  level (log10): -0.013 ± 0.0014
[11]; 60000 nM
  level (log10): 0.001 ± 0.04
[12]; 6700 nM
  level (log10): -0.002 ± 0.0057
[12]; 20000 nM
  level (log10): 0.0025 ± 0.0021
[12]; 60000 nM
  level (log10): 0.007
[13]; 6700 nM
  level (log10): -0.015 ± 0.0014
[13]; 20000 nM
  level (log10): -0.0375 ± 0.0064
[13]; 60000 nM
  level (log10): -0.0645 ± 0.0078
[14]; 6700 nM
  level (log10): -0.0375 ± 0.0021
[14]; 20000 nM
  level (log10): -0.104 ± 0.016
[15]
  level (log10): -0.084 ± 0.011
